Data on six compounds can be found in patent US20260325685A1, “Radiopharmaceutical Compositions Targeting Carbonic Anhydrase IX and Uses Thereof” (RayzeBio, Inc., priority 2023, published 2026).

One assay has as its target T1, human CA-XII (Homo sapiens, UniProt O43570).
T1 construct: purchased Creative BioMart CA12-261H
Description: Surface Plasmon Resonance (SPR) binding kinetics to recombinant human CA-XII (Biacore 8K, single-cycle kinetics, 1:1 binding model). A digest of the protocol:
(§1)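 Recombinant human CA-IX or CA-XII captured on streptavidin chips (1200-1800 RU) in PBS-P+, pH 7.4. Single-cycle kinetics over 9 analyte concentrations (100-0.39 nM) with 1% DMSO, 120 s association, 1200 s dissociation, 25° C. Reference- and DMSO-corrected curves fit to 1:1 model for on/off rates.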
(Surface plasmon resonance follows binding to a sensor surface in real time, without labels.)

The target in a further assay is T2, human CA-IX (Homo sapiens, UniProt Q16790).
T2 construct: purchased Acro CA9-H82E3
In words: Surface Plasmon Resonance (SPR) binding kinetics to recombinant human CA-IX (Biacore 8K, single-cycle kinetics, 1:1 binding model). A digest of the protocol:
as §1

Where [1] appears, read: Chelated Metal: Lu-175, 25° C., pH 7.4, read-out: CAXII KD.
Setting [2] is: Chelated Metal: Lu-175; SPR, 25° C., pH 7.4; read-out: CAIX KD.

SMILES strings stand for the structures. pKd: −log10 of the molar value. Read-outs that look alike come from different tables or passages of the source.

T1 sequence (O43570 25-354): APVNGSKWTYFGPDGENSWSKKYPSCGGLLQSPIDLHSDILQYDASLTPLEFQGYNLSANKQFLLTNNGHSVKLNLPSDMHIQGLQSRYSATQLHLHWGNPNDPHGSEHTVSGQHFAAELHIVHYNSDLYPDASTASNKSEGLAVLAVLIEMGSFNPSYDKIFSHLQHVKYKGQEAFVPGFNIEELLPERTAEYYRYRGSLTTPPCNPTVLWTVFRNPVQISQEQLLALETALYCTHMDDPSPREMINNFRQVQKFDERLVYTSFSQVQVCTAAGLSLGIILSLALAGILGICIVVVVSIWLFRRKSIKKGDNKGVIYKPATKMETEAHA

The pKd is the negative decadic logarithm of the Kd, by convention in mol/L. As for `CC(CCCC(=O)N1CCC(C(N)=O)(C(=O)NCC(=O)N2CCN(C(=O)CCOCCOCCOCCOCCN(CCOCCOCCOCCOCCC(=O)N3CCN(C(=O)CNC(=O)C4(C(N)=O)CCN(C(=O)CCCC(C)(c5ccc(O)cc5)c5ccc(O)cc5)CC4)[C@H](C(=O)NCCn4cc(C56CC(C(=O)Nc7nnc(S(N)(=O)=O)s7)(C5)C6)nn4)C3)C(=O)CNC(=O)CN3CCN(CC(=O)O)CCN(CC(=O)O)CCN(CC(=O)O)CC3)C[C@H]2C(=O)NCCn2cc(C34CC(C(=O)Nc5nnc(S(N)(=O)=O)s5)(C3)C4)nn2)CC1)(c1ccc(O)cc1)c1ccc(O)cc1.[Lu+3]` [Compound 131], the pKd at human CA-XII (read-out: CAXII KD, Chelated Metal: Lu-175, 25° C., pH 7.4) was 8.00 to 8.60; on human CA-IX (read-out: CAIX KD; Chelated Metal: Lu-175; SPR, 25° C., pH 7.4) it was greater than 9.00.

As for `CC(CCC(=O)N[C@@H](CC(=O)N[C@@H](CC(=O)N[C@@H](CCCCn1cc(C23CCC(C(=O)Nc4nnc(S(N)(=O)=O)s4)(CC2)C3)nn1)C(=O)N1CCC(NC(=O)CN2CCN(CC(=O)O)CCN(CC(=O)O)CCN(CC(=O)O)CC2)CC1)C(=O)O)C(=O)O)(c1ccc(O)cc1)c1ccc(O)cc1.[Lu+3]` [Compound 100.12], the pKd on human CA-XII (setting [1]) and at human CA-IX (setting [2]) was greater than 9.00 throughout.

Turning to `NS(=O)(=O)c1nnc(NC(=O)C23CC(c4cn(CCNC(=O)[C@@H]5CN(C(=O)CN6CCN(CC(=O)O)CCN(CC(=O)O)CCN(CC(=O)O)CC6)CCN5C(=O)C[C@H](NC(=O)C[C@H](NC(=O)c5ccc(C6(C(F)(F)F)CC6)cn5)C(=O)O)C(=O)O)nn4)(C2)C3)s1.[Lu+3]` [Compound 109.25], the pKd on human CA-XII (setting [1]) is 8.00 to 8.60; on human CA-IX (setting [2]), greater than 9.00.

For the compound `CC(CCC(=O)N[C@@H](CC(=O)N[C@@H](CCC(=O)N1CCN(C(=O)CN2CCN(CC(=O)O)CCN(CC(=O)O)CCN(CC(=O)O)CC2)C[C@@H]1C(=O)NCCn1cc(C23CC(C(=O)Nc4nnc(S(N)(=O)=O)s4)(C2)C3)nn1)C(=O)O)C(=O)O)(c1ccc(O)cc1)c1ccc(O)cc1.[Lu+3]` [Compound 107.13], the pKd is less than 8.00 on human CA-XII (setting [1]) and 8.60 to 9.00 at human CA-IX (setting [2]).

In the case of `CC(CCCC(=O)N1CCC(C(N)=O)(C(=O)NCC(=O)NC2(C(=O)NCCn3cc(COc4ccc5nc(S(N)(=O)=O)sc5c4)nn3)CCN(C(=O)CC[C@H](C(=O)O)N3CCN(CC(=O)O)CCN(CC(=O)O)CCN(CC(=O)O)CC3)CC2)CC1)(c1ccc(O)cc1)c1ccc(O)cc1.[Lu+3]` [Compound 127.9], the pKd is less than 8.00 at human CA-XII (setting [1]) and greater than 9.00 at human CA-IX (setting [2]).

Take `CC(CCC(=O)N[C@@H](CC(=O)N[C@@H](CC(=O)N1CCN(C(=O)CN2CCN(CC(=O)O)CCN(CC(=O)O)CCN(CC(=O)O)CC2)C[C@H]1C(=O)NCCn1cc(-c2ccc(C(=O)Nc3nnc(S(N)(=O)=O)s3)cc2)nn1)C(=O)O)C(=O)O)(c1ccc(O)cc1)c1ccc(O)cc1.[Lu+3]` [Compound 107.22]: the values for the pKd on human CA-XII (setting [1]) and at human CA-IX (setting [2]) were less than 8.00 and 8.60 to 9.00, respectively.
